From a melting point compilation (Tetko et al.; mined from patent text by program, amines drawn as free bases though some values may be those of a salt)

Row | SMILES | melting point [°C]
1 | CC1(C)C=CN(C(=O)Nc2ccccc2)C=C1 | 128 to 130
2 | CCCc1nn(-c2ccc(C(F)(F)F)cn2)cc1CCCOc1c(C#N)cccc1CC(=O)O | 146 to 147
3 | NNC(=O)c1ccccc1OCC(F)(F)F | 102 to 104
4 | CCN(CC)C(=O)Cc1c(-c2ccc(F)cc2)nc2c(C)cc(C)nn12 | 139 to 143
5 | CCCCCCCCCCCCCc1c[nH]c(C(=O)O)c1 | 150 to 151
6 | Cc1ccc(S(=O)(=O)OC[C@H]2COCCO2)cc1 | 53 to 54
7 | Cn1nc(C(F)(F)F)cc1Oc1cccc(-c2nc(C(F)(F)F)no2)n1 | 91 to 93
8 | CCCc1nc(C=O)c(Cl)c(N)c1F | 89 to 91
9 | C=C(C)C(=O)NCCCNC(=O)CC(C)=O | 93 to 94
10 | CN(C)C(=O)C#C[C@H]1CC[C@H](N(C)C(=O)OC(C)(C)C)CC1 | 115 to 117
11 | CCOC(=O)C(NC(=O)CS(C)=O)C(=O)OCC (centres undefined) | 85 to 87
12 | Cc1ccc(C(=O)Nc2ccccc2O)cc1F | 181 to 183
13 | CCCN1N=C2C(=Cc3cccc(C(F)(F)F)c3)CS(=O)(=O)CC2C1c1cccc(C(F)(F)F)c1 (centres undefined) | 190 to 191
14 | COc1cc2c(cc1OC)-c1c(C#N)sc(=S)n1CC2 | 228
15 | CC(C)OC(=O)C1=C(O)c2ccccc2S(=O)(=O)N1C | 102 to 103
16 | Cc1ncc(-c2ccc(C(F)(F)F)cc2)c(NC2CCCCC2)n1 | 220 to 225
17 | N#CC(c1ccc(F)cc1)c1ccc([N+](=O)[O-])cc1C(F)(F)F (centres undefined) | 68
18 | CCC(C)OC(=O)N1CCC(c2nc3cc(-c4ccc(-n5cnnn5)cc4F)ccc3o2)CC1 (centres undefined) | 118 to 122
19 | CC(=O)Nc1c(C)ccc(N)c1C | 195 to 197
20 | Cn1ccnc1C=NO | 170 to 172
21 | CCN(CC)c1ccc(C(=O)C#Cc2ccncn2)cc1 | 180 to 182

Row | SMILES | melting point [°C]
22 | N=C(N=C1NC(=O)C(=O)N1c1ccc(Cl)c(Cl)c1)Nc1ccc(Cl)c(Cl)c1 | 220
23 | COC(=O)c1ccc2[nH]cc(CCCCN3CCN(c4ccc5c(c4)OCCO5)CC3)c2c1 | 177 to 179
24 | CCCCCC(=O)c1c[nH]c2c(OC)cccc2c1=O | 169 to 171
25 | CC(=O)c1cc(O)c(C)c(C)c1O | 151
26 | Clc1ccc2c(c1)C(c1ccccc1)=NCc1nnc(Cc3ccccc3)n1-2 | 190 to 192
27 | CC(C)c1cc(C(C)C)c(CC(=O)NS(=O)(=O)Oc2c(C(C)C)cc(NS(C)(=O)=O)cc2C(C)C)c(C(C)C)c1 | 164 to 166
28 | CC1CN(Cc2ccc(Cl)nc2)C(=C[N+](=O)[O-])N1 (centres undefined) | 170 to 174
29 | CN1CCN(C2CCC(Nc3ncc4ncnc(Nc5ccc(F)c(Cl)c5)c4n3)CC2)CC1 (centres undefined) | 194 to 196
30 | COCc1ccc(-c2csc(-c3ccncc3)n2)c(=O)[nH]1 | 249 to 254
31 | O=c1cc(CCl)nc2sc(-c3ccccc3)nn12 | 201 to 202
32 | COC(=O)[C@@H]1CCCN1S(=O)(=O)c1ccc(C)c(C(=O)Cl)c1C | 92
33 | COC(=O)CCc1ccc(CNC(=O)[C@@H](CCCNC(N)=N[N+](=O)[O-])NC(=O)C(c2ccccc2)c2ccccc2)cc1 | 159 to 161
34 | Cc1ccc2c(c1)N=C(N1CCN(C)CC1)c1cc(Br)cc3ccn-2c13 | 153 to 155
35 | Fc1ccc(F)c(CC2CCN(C3CC=C(c4ccc5c(c4)OCO5)CC3)CC2)c1 (centres undefined) | 87 to 88
36 | O=C(c1ccc(-c2ccc(-c3ccc(-c4ccc(C(=O)c5c(F)c(F)c(F)c(F)c5F)s4)s3)s2)s1)c1c(F)c(F)c(F)c(F)c1F | 291 to 294
37 | CC(C)N1C(=O)N(c2ccc(C#N)c(C(F)(F)F)c2)C(=O)C1(CO)CO | 172 to 173
38 | Cc1cc2c3c(c1)C1(CC(=O)NC1=O)C(=O)N3CCC2 (centres undefined) | 165 to 167
39 | COC(=O)Cn1c(Cl)c(Cl)c(Cl)c1Cl | 115
40 | Cc1ccc(-c2nc3ccc(N4C[C@H]5CN(C)C[C@H]5C4)nn3c2-c2ccncc2)o1 | 178 to 181
41 | CC1COC(c2nsc3ccc(-n4c(=O)cc(C(F)(F)F)n(C)c4=O)cc23)O1 (centres undefined) | 81 to 83
42 | COc1cc(CBr)c(OC)cc1Cl | 85 to 88

Row | SMILES | melting point [°C]
43 | O=[N+]([O-])c1ccc(CN2CCCCc3sccc32)cc1 | 141 to 142
44 | CC1CC(=O)NN=C1c1ccc(NC(=O)c2cccs2)cc1 (centres undefined) | 256 to 258
45 | O=[N+]([O-])c1cn2c(n1)OC[C@@H](OCc1ccc(Br)cn1)C2 | 171 to 173
46 | NC(CO)(CO)C(=O)O | 109 to 112
47 | Cc1cc(C(C)C)cc(C)c1CO | 75 to 77
48 | CCOCCN(CCOCC)NC(=O)NS(=O)(=O)c1ccc(Cl)cc1 | 84.5 to 85.5
49 | Cc1nc(N)c2ncn(Cc3cc(-c4ccc(F)cc4)no3)c2c1C | 244 to 246
50 | O=Cc1cc(-c2ccc(Cl)cc2Cl)ccc1OC(F)(F)F | 62 to 63
51 | CC(C)c1ccc(/C=C/c2cc(/C=C/c3ccc4cc[nH]c4c3)n[nH]2)cc1 | 208 to 212
52 | CCCCCCC[C@H]1CC[C@H](COc2ccc(O)cc2)CC1 | 107 to 108
53 | O=C(c1ccc(Cl)c([N+](=O)[O-])c1)c1ccc(F)cc1F | 90.5
54 | O=P(O)(O)C(O)(CCc1ccc(Cl)cc1)P(=O)(O)O | 201
55 | O=C1CC(N2Cc3ccc(F)cc3NC2=O)C(=O)N1 (centres undefined) | 283 to 285
56 | CC(C)(Cl)C(CCn1ccnc1[N+](=O)[O-])N=O (centres undefined) | 96 to 97
57 | COc1cc(Nc2c(C#N)cnc3cc(-c4cccc(CCN5CCOCC5)c4)c(OC)cc23)c(Cl)cc1Cl | 193 to 195
58 | CCOCc1nc2c(N)nc3cccnc3c2n1CCCC(C)N(OC)C(=O)NC(C)C (centres undefined) | 174 to 175
59 | C[C@H]1[C@H](Oc2cccc(C(F)(F)F)c2)CN1C(N)=O (relative stereo) | 107 to 108
60 | O=C(O)C(=O)Cc1ccsc1 | 203 to 204
61 | CC(C(=O)NC1=NCCS1)c1ccc(C(=O)c2cccs2)cc1 (centres undefined) | 186

Continued, values first:

Row | melting point [°C] | SMILES
62 | 244 to 247 | CCCOc1ccc(-c2ccc3c(c2)C=C(C(=O)Nc2ccc(CN(C)C4CCOCC4)cc2)CCS3(=O)=O)cc1
63 | 126 to 128 | CC(C)(C)C1=CC(=Nc2ccc(CC#N)cc2)C=C(C(C)(C)C)C1=O
64 | 100 to 106 | C[C@H](OC(c1ccccc1)(c1ccccc1)c1ccccc1)C(=O)O
65 | 104 to 111 | COc1ccc(C2COc3cc(OC(=O)C(C)(C)C)ccc3C2(O)Cc2ccc(OCc3ccccc3)cc2)cc1 (centres undefined)
66 | 164 to 165 | Cc1ccc(C2c3c(C)c(NC(=O)c4ccc5c(c4)OCO5)c(C)c(C)c3OC2(C)C)cc1 (centres undefined)
67 | 156 | COc1ccc(-n2nc(C(C)(C)C)cc2NC(=O)c2nccc3cc(Oc4cc(Cl)ncn4)ccc23)cc1
68 | 214 to 217 | CC(c1oc2ccccc2c(=O)c1-c1ccccc1)n1nc(-c2cn[nH]c2)c2c(N)ncnc21 (centres undefined)
69 | 147 to 149 | CC(C)(C)c1ccccc1COc1ccc(N)cn1
70 | 212 to 214 | COc1ccc(-c2cc(CN3C(=O)c4ccccc4C3=O)c(=O)n(Cc3ccc(Cl)cc3)n2)cc1F
71 | 142 to 144 | O=C1OCCCC1=Cc1ccccc1OCC(O)CN1CCC(c2ccc3ccccc3c2)CC1 (centres undefined)
72 | 88 to 89 | CC(=O)Oc1cc(OCC(OC(C)=O)c2ccc3c(c2)C(C)(C)CCC3(C)C)ccc1C(=O)O (centres undefined)
73 | 92 | CC(C)NCC(O)COC1c2ccccc2C(=O)N1c1ccccc1 (centres undefined)
74 | 159 to 160 | CN(c1nc(=O)n(C)cc1F)S(=O)(=O)Cc1ccccc1
75 | 257 | Cc1nnc(N2C(=O)C(O)=C(C(=O)c3ccc(C(C)C)cc3)C2c2ccc(C(F)(F)F)cc2)s1 (centres undefined)
76 | 69 to 72 | O=C(OCCc1ccccc1)ON1C(=O)CCC1=O
77 | 262 to 265 | Cc1cc(C)n(-c2nc(Nc3ccccc3)c3ccccc3n2)n1
78 | 233 to 234 | Cc1cc(OCC(=O)OC(C)C)ccc1NC(=O)NC(=O)c1ccc(C#N)cc1
79 | 123 | Cc1ccc(S(=O)(=O)OCC2COc3ccc4nc(C)oc4c3O2)cc1 (centres undefined)
80 | 135 to 137 | COC(=O)C1CCN(Cc2ccc(-c3ccc4c(Nc5ccc(Sc6nccn6C)c(Cl)c5)c(C#N)cnc4c3)nc2)CC1

Row | melting point [°C] | SMILES
81 | 208 to 210 | COc1ccc(-c2ccnc3[nH]c4ccccc4c23)cc1
82 | 150 to 152 | Nc1c([N+](=O)[O-])cc(Br)c2c1CN(Cc1ccccc1)CC2
83 | 159 | O=C(Nc1ccccc1)O[C@H]1CSC(c2ccccc2)=N[C@@H]1c1ccccc1 (racemic)
84 | 229 to 230 | O=c1c2ccccc2nc(-c2cc(-c3ccc(Cl)cc3)c(N3CCOCC3)s2)n1-c1ccccc1
85 | 213 to 216 | O=C1CCC2=C(c3ccccc3)c3ccccc3C2N1 (centres undefined)
86 | 133 to 134 | CC(C)Cn1nc(OCCCc2ccc(OC(C)C)cc2OCc2ccc(Cl)cc2Cl)cc1CCC(=O)O
87 | 168 to 170 | COc1ccc(NC(=O)NC/C=C2\CCCc3ccc(OC)cc32)cc1
88 | 87 to 94 | O=CC(=Cc1ccccc1)c1ccc(F)cc1
89 | 230 to 231 | Cc1nc2c(N)nc3ccccc3c2n1CCCNC(=O)c1ccccc1
90 | 109 to 110 | CCOC(=O)c1cc2cc(-c3ccccc3)ccc2o1
91 | 120 to 121 | CC(C)c1ccc(N(Cc2ccc(OCc3ccccc3)cc2)C(=O)C2CCCc3ccccc32)cc1 (centres undefined)
92 | 224 | O=C(Cc1ccccc1)Nc1ccc2c(c1)C(=O)c1cc(NC(=O)Cc3ccccc3)ccc1C2=O
93 | 220 | COc1ccc(-c2cc3ccc(C)cc3[nH]2)cc1
94 | > 300 | O=c1cc(C2CCc3ccccc3C2)[nH]c2ccccc12 (racemic)
95 | 124 to 125 | c1cn(CCCc2ccc(OCc3coc(-c4ccc(OCc5ccc6c(c5)OCO6)cc4)n3)cc2)cn1
96 | 264 to 266 | CN(C)C1=NC(NC(=O)CC2CCCCC2)C(=O)N(c2ccccc2)c2ccccc21 (centres undefined)
97 | 188 to 189 | N#Cc1ccc(NC2=C(Cl)C(=O)c3ccccc3C2=O)cc1
98 | 275 to 276 | O=C1Nc2ccc([N+](=O)[O-])cc2C2(c3ccccc3)OCCN12 (centres undefined)
99 | 116 to 117 | COc1ccc2c(c1)C(=O)C(Oc1cccnc1)CO2 (centres undefined)
